Assay results from ChEMBL document CHEMBL3046347, “Synthesis and biological evaluation of novel curcumin analogues as anti-inflammatory, anti-cancer and anti-oxidant agents” (Med Chem Res, 2012).

How the values were obtained:
Trypsin (Homo sapiens) = Trypsin (Homo sapiens) (UniProt P07477+P07478+P35030); assay: Inhibition of trypsin (unknown origin) using bovine serum albumin as substrate at 1 uM incubated for 20 min prior to substrate addition measured after 25 min by Lowry method; assay type: protein assay
[1] = molecular target: T1, Beta-glucuronidase (Homo sapiens) (UniProt P08236); assay: Inhibition of beta-glucuronidase (unknown origin) using p-nitrophenyl-beta-D-glucopyranosiduronic acid as substrate at 1 uM after 30 min by spectrophotometric analysis
T1 sequence (whole entry): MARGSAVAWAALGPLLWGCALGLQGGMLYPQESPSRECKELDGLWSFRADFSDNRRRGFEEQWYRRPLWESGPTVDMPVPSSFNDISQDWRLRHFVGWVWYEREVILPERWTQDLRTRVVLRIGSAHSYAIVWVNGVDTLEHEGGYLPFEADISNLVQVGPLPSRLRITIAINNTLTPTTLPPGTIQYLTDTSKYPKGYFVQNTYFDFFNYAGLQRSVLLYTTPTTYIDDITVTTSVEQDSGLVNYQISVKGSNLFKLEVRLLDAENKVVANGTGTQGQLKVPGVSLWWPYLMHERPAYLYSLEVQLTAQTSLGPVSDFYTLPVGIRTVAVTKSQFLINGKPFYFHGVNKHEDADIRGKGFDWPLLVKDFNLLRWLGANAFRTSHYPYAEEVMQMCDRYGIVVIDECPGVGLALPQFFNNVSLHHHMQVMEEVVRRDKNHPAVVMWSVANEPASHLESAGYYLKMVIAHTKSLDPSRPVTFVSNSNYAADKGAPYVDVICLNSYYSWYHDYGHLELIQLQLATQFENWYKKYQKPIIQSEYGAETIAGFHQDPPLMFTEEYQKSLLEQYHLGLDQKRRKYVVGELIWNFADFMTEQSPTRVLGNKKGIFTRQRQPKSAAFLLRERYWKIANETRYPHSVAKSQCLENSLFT

Calu-1 = assay: Cytotoxicity against Homo sapiens (human) Calu1 cells at 10 uM after 48 hr by propidium iodide-based fluorometric assay; assay type: functional; conditions: Calu-1, 48 h, read-out: GI
[2] = molecular target: T2, Prostaglandin G/H synthase 1 (Ovis aries) (UniProt P05979); conditions: at 1 µM;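 note: colorimetric read-out, measured after 5 min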
T2 sequence (whole entry): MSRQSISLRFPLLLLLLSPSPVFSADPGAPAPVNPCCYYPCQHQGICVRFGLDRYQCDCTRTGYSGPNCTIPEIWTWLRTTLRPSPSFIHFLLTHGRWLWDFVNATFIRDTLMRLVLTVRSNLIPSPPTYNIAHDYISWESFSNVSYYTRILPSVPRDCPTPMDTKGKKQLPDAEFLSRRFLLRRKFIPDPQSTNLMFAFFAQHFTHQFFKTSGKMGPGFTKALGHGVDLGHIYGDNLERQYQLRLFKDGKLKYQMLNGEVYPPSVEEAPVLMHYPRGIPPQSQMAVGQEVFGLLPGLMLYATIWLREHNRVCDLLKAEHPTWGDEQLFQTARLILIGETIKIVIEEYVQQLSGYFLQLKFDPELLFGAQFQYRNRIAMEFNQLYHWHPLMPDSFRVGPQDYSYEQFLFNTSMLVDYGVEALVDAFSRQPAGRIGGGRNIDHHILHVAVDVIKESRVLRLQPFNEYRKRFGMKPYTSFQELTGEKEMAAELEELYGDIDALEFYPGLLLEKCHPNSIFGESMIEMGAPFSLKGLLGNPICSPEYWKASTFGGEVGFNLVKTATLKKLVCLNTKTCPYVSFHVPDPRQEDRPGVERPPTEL
Description: Inhibition of Ovis aries (sheep) COX1 at 1 uM after 5 min by colorimetric analysis

[3] = Antioxidant activity assessed as reduction of potassium ferricynide at 1 uM after 10 min by spectrophotometric analysis; assay type: functional; design: scale not given: the % may be the effect or the level left
[4] = Cytotoxicity against Homo sapiens (human) […] cells at 10 uM; assay type: cell-based
THP-1 [5] = assay: Anti-inflammatory activity in Homo sapiens (human) THP1 cells assessed as inhibition of LPS-induced TNFalpha production at 10 uM incubated for 30 min prior to LPS-challenge measured after 24 hr by ELISA; assay type: functional
[6] = test system: Radical scavenging activity; assay: Antioxidant activity assessed as DPPH radical scavenging activity at 1 uM after 20 min by spectrophotometric analysis; assay type: functional
HCT-116 = assay: Cytotoxicity against Homo sapiens (human) HCT116 cells at 10 uM after 48 hr by propidium iodide-based fluorometric assay; assay type: functional; conditions: HCT-116, 48 h, read-out: GI
[7] = molecular target: T3, Prostaglandin G/H synthase 2 (Ovis aries) (UniProt P79208); assay: Inhibition of Ovis aries (sheep) COX2 at 1 uM after 5 min by colorimetric analysis
T3 sequence (whole entry): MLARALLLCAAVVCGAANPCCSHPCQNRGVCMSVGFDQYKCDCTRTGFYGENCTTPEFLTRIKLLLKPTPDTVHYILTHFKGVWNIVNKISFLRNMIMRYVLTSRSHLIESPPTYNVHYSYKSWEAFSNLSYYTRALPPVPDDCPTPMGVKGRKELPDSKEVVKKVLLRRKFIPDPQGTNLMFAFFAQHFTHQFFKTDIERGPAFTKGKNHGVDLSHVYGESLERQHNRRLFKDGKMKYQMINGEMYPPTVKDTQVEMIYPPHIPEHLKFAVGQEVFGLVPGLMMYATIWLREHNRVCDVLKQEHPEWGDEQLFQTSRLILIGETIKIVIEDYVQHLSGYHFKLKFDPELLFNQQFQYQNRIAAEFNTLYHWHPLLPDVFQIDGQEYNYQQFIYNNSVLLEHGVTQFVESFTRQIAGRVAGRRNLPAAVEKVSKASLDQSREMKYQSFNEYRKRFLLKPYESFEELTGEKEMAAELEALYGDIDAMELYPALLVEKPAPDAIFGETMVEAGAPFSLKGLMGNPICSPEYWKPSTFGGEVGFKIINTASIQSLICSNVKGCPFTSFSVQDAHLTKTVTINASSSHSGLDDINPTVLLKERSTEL

[8] = Cytotoxicity against Homo sapiens (human) H460 cells at 10 uM after 48 hr by propidium iodide-based fluorometric assay; assay type: functional; conditions: NCI-H460, 48 h, read-out: GI
ACHN = assay: Cytotoxicity against Homo sapiens (human) ACHN cells at 10 uM after 48 hr by propidium iodide-based fluorometric assay; assay type: functional; conditions: read-out: GI
[9] = Antioxidant activity assessed as hydroxyl radical scavenging activity at 1 uM by spectrophotometric analysis; assay type: functional
THP-1 [10] = assay: Anti-inflammatory activity in Homo sapiens (human) THP1 cells assessed as inhibition of LPS-induced IL6 production at 10 uM incubated for 30 min prior to LPS-challenge measured after 24 hr by ELISA; assay type: functional
PANC-1 = assay: Cytotoxicity against Homo sapiens (human) PANC1 cells at 10 uM after 48 hr by propidium iodide-based fluorometric assay; assay type: functional; conditions: PANC-1, 48 h, read-out: GI

| SMILES | inhibition (Trypsin (Homo sapiens)) [%] | inhibition [1] [%] | inhibition of growth at 10 µM (Calu-1) [%] | inhibition [2] [%] | Activity [3] [%] | Activity [4] [%] | inhibition at 10 µM (THP-1 [5]) [%] | Activity [6] [%] | inhibition of growth at 10 µM (HCT-116) [%] | inhibition [7] [%] | inhibition of growth at 10 µM [8] [%] | inhibition of growth at 10 µM (ACHN) [%] | Activity [9] [%] | inhibition at 10 µM (THP-1 [10]) [%] | inhibition of growth at 10 µM (PANC-1) [%] |
| --- | --- | --- | --- | --- | --- | --- | --- | --- | --- | --- | --- | --- | --- | --- | --- |
| O=C(O)c1ccccc1O | 85 | 24.8 | – | – | – | – | – | – | – | – | – | – | – | – | – |
| COc1cc(OC)c(/C=C/C(=O)c2cccc(NC(=O)c3cccc(F)c3)c2)c(OC)c1Br | 63.5 | 72.9 | 31 | 59.8 | 39.9 | 51 | 78 | 43.3 | 26 | 82.5 | 33 | 33 | 32.2 | 93 | 32 |
| CC(=O)Oc1ccccc1C(=O)O | – | – | – | – | – | – | – | – | – | 36.9 | – | – | – | – | – |
| COc1cc(OC)c(/C=C/C(=O)c2cccc(NC(=O)c3ccccc3C(F)(F)F)c2)c(OC)c1Br | 68.4 | 76.9 | 0 | 39.9 | 42.9 | 62 | 85 | 44.6 | 6 | 87.9 | 11 | 6 | 35.9 | 95 | 3 |
| COc1cc(OC)c(/C=C/C(=O)c2cccc(NC(=O)c3ccc(C(C)(C)C)cc3)c2)c(OC)c1Br | 69.6 | 82.5 | 32 | 64.6 | 36.8 | 56 | 83 | 43.6 | 10 | 85.8 | 51 | 35 | 27.3 | 96 | 37 |
| COc1ccc(C(=O)Nc2cccc(C(=O)/C=C/c3c(OC)cc(OC)c(Br)c3OC)c2)cc1 | 39.6 | 34 | 99 | 19.6 | 26.9 | 65 | 63 | 36.3 | 98 | 38 | 98 | 97 | 21.2 | 94 | 99 |
| O=C(O)c1cc(O)c(O)c(O)c1 | – | – | – | – | – | – | – | 92.4 | – | – | – | – | – | – | – |
| COc1cc(OC)c(/C=C/C(=O)c2cccc(NC(=O)c3cccc(Br)c3)c2)c(OC)c1Br | 66.5 | 84.7 | 0 | 41.7 | 39.7 | 31 | 4 | 42.6 | 0 | 88.4 | 6 | 6 | 23.6 | 75 | 0 |
| COc1cc(OC)c(/C=C/C(=O)c2cccc(NC(=O)c3cccc(Cl)c3)c2)c(OC)c1Br | 78.1 | 78.2 | 26 | 53.9 | 38.4 | 25 | 0 | 45.3 | 28 | 86.5 | 17 | 26 | – | 64 | 35 |
| COc1cc(OC)c(/C=C/C(=O)c2cccc(NC(=O)c3ccc(F)cc3)c2)c(OC)c1Br | 72.9 | 79.4 | 60 | 58.9 | 43.9 | 49 | 85 | 44.3 | 64 | 83.3 | 62 | 69 | 33.4 | 97 | 66 |
| COc1cc(OC)c(/C=C/C(=O)c2cccc(NC(=O)c3cccs3)c2)c(OC)c1Br | 41.4 | 44.7 | 85 | 27.8 | 32.7 | 53 | 80 | 35.3 | 98 | 55.4 | 72 | 82 | 49.3 | 96 | 89 |
| COc1cc(OC)c(/C=C/C(=O)c2cccc(NC(=O)c3ccccc3)c2)c(OC)c1Br | 58.1 | 49.6 | 6 | 51.9 | 46.6 | 65 | 91 | 49.4 | 0 | 65.7 | 14 | 21 | 54.1 | 98 | 10 |
| COc1cc(OC)c(/C=C/C(=O)c2cccc(NC(=O)c3cccc(C(F)(F)F)c3)c2)c(OC)c1Br | 65.5 | 81.4 | 0 | 48.9 | 40.7 | 65 | 85 | 45.7 | 6 | 89.2 | 4 | 15 | – | 97 | 0 |
